Experimental data reported in patent US20110251379A1, “COMPOUNDS USEFUL FOR TREATING NEURODEGENERATIVE DISORDERS” (Satori Pharmaceuticals, Inc., priority 2010, published 2011).
Read-outs that look alike come from different tables or passages of the source.

Legend:
Type in all cases: cell-based
Aβ-38 = test: MSD Human (6E10) Ab 3-PLEX elisa, conditioned media of 2B7 cells: Aβ-38; settings: Homo sapiens, Aβ-38 (superscript a)
Method: (§1) Assays were conducted to determine the ability of a Compound of Formula I to modulate […], and Aβ-38.
(§2) Plates with capture antibodies were blocked for 1-2 hours at room temperature with 150 μL of the manufactures blocking reagent.
(§3) Conditioned Media: • Cultured 2B7 cells in 96 well plate with 250 uL of media per well until confluent; • Prepared serial dilutions of compounds in DMSO at 100× the final desired concentration; • Washed wells with 2B7 cells 1× with 250 uL of media; • Diluted DMSO stocks 1:100 into media: • Added 250 μL of media containing compounds (1% DMSO) to wells with 2B7 cells for 5 hours at 37° C.
(§4) Elisa Sample Prep: • Diluted conditioned media: 1 part media with 1% DMSO and 1 part blocking buffer; • 150 μL of the 250 μL of conditioned media were used.
(§5) […] CURVE SAMPLE PREP: Prepared per manufacturer's protocol (see above) • Seven point standard curve samples were prepared that contained Aβ-42, Aβ-40, and Aβ-38. The highest concentration of Aβ-42 and Aβ-3-38 was 3,000 pg/mL and the highest concentration of Aβ-40 was 10,000 pg/mL. Subsequent serial dilutions were 1:3 and the final composition of each sample was 1 part blocking buffer and 1 part cell medium containing 1% DMSO.
(§6) Overnight Sample Incubation: • Blocked plates are washed 5× with MSD wash buffer with a plate washer • 25 uL of detection antibody and blocker G reagent in MSD blocking solution is added • 25 uL of samples (1 part conditioned media containing 1% DMSO and 1 part MSD blocking buffer) are then added. • plates are incubated overnight at 4 degrees C. or 2 hours at room temp
(§7) Final Wash and Readout: • Wash wells 5× with MSD wash buffer • Added 150 μL 2×MSD read buffer • Read with MSD imager.
(§8) A-Beta peptide levels for each peptide are calculated from the standard curve using the MSD software provided with the MSD 2400 Imager. Percent vehicle values for each compound dosage were then calculated and fit to a 4 parameter curve generating IC50 values.

Aβ-40 = test: MSD Human (6E10) Ab 3-PLEX elisa, conditioned media of 2B7 cells: Aβ-40; settings: Homo sapiens; for IC50: Aβ-40 (superscript b); for inhibition at 20 µM: Aβ-40, 20 μM
Method: as §1, §2, §3, §4, §5, §6, §7, §8

Aβ-42 = test: MSD Human (6E10) Ab 3-PLEX elisa, conditioned media of 2B7 cells: Aβ-42; settings: Homo sapiens, Aβ-42 (superscript c)
Method: as §1, §2, §3, §4, §5, §6, §7, §8

Compound	IC50 (Aβ-38; read-out: 50% reduction value) [µM]	IC50 (Aβ-40; read-out: 50% reduction value) [µM]	IC50 (Aβ-42; read-out: 50% reduction value) [µM]	inhibition at 20 µM (Aβ-40) [%]	IC50 (Aβ-38; read-out: IC50 range) [µM]	IC50 (Aβ-40; read-out: IC50 range) [µM]	IC50 (Aβ-42; read-out: IC50 range) [µM]
CC(=O)OC[C@@]1(C)C[C@@H](C)[C@H]2C(O1)[C@H](O)[C@@]1(C)C3CC[C@H]4C(C)(C)C(O)CC[C@@]45C[C@@]35CC[C@]21C (some centres unmarked)	1 to 10	1 to 10	> 10	–	–	–	–
CC(=O)O[C@@H](C1C[C@@H](C)C2C(O1)[C@H](O)[C@@]1(C)[C@@H]3CC[C@H]4C(C)(C)C(O)CC[C@@]45C[C@@]35CC[C@]21C)C(C)(C)C (some centres unmarked)	1 to 10	–	< 1	25 to 75	–	–	–
CC(C)[C@@H](OC(=O)N1CCC1)C1C[C@@H](C)[C@H]2C(O1)[C@H](O)[C@@]1(C)C3CC[C@H]4C(C)(C)C(OC(=O)N5CC(C(=O)O)C5)CC[C@@]45C[C@@]35CC[C@]21C (some centres unmarked)	< 1	1 to 10	< 1	–	–	–	–
CC(C)[C@@H](OC(=O)N1CCC1)C1C[C@@H](C)[C@H]2C(O1)[C@H](O)[C@@]1(C)C3CC[C@H]4C(C)(C)C(OC(=O)NC5CNC5)CC[C@@]45C[C@@]35CC[C@]21C (some centres unmarked)	< 1	1 to 10	< 1	–	< 1	1 to 10	< 1
CCO[C@@H]([C@H]1C[C@@H](C)[C@H]2[C@H](O1)[C@H](O)[C@@]1(C)[C@@H]3CC[C@H]4C(C)(C)[C@@H](OC(=O)N5CC(C(=O)O)C5)CC[C@@]45C[C@@]35CC[C@]21C)C(C)(C)O	< 1	1 to 10	< 1	–	< 1	1 to 10	< 1
CC(C)O[C@@H](C1C[C@@H](C)[C@H]2C(O1)[C@H](O)[C@@]1(C)C3CC[C@H]4C(C)(C)C(O[C@H]5CN(C6COC6)CCO5)CC[C@@]45C[C@@]35CC[C@]21C)C(C)(C)O (some centres unmarked)	< 1	1 to 10	< 1	–	< 1	1 to 10	< 1
CCO[C@@H](C1C[C@@H](C)[C@H]2C(O1)[C@H](O)[C@@]1(C)C3CC[C@H]4C(C)(C)C(O[C@H]5CN(C6CCOCC6)CCO5)CC[C@@]45C[C@@]35CC[C@]21C)C(C)(C)O (some centres unmarked)	< 1	1 to 10	< 1	–	< 1	1 to 10	< 1
CCO[C@@H](C1C[C@@H](C)[C@H]2C(O1)[C@H](O)[C@@]1(C)C3CC[C@H]4C(C)(C)C(O[C@H]5CN(C6CCOC6)CCO5)CC[C@@]45C[C@@]35CC[C@]21C)C(C)(C)O (some centres unmarked)	< 1	1 to 10	< 1	–	–	–	< 1
CCO[C@@H](C1C[C@@H](C)[C@H]2C(O1)[C@H](O)[C@@]1(C)C3CC[C@H]4C(C)(C)C(OC(N)=O)CC[C@@]45C[C@@]35CC[C@]21C)C(C)(C)O (some centres unmarked)	< 1	1 to 10	< 1	–	–	–	< 1
CCO[C@@H](C1C[C@@H](C)[C@H]2C(O1)[C@H](O)[C@@]1(C)C3CC[C@H]4C(C)(C)C(OC(=O)NC)CC[C@@]45C[C@@]35CC[C@]21C)C(C)(C)O (some centres unmarked)	< 1	–	< 1	> 75	–	–	–
C=C(C)CO[C@@H](C1C[C@@H](C)[C@H]2C(O1)[C@H](O)[C@@]1(C)C3CC[C@H]4C(C)(C)C(OC(=O)NC5CNC5)CC[C@@]45C[C@@]35CC[C@]21C)C(C)(C)O (some centres unmarked)	< 1	1 to 10	< 1	–	–	> 10	< 1
CC(C)CO[C@@H](C1C[C@@H](C)[C@H]2C(O1)[C@H](O)[C@@]1(C)C3CC[C@H]4C(C)(C)C(OC(=O)NC5CNC5)CC[C@@]45C[C@@]35CC[C@]21C)C(C)(C)O (some centres unmarked)	1 to 10	1 to 10	< 1	–	–	–	< 1
CC(C)CO[C@@H](C1C[C@@H](C)[C@H]2C(O1)[C@H](O)[C@@]1(C)C3CC[C@H]4C(C)(C)C(OC(=O)NC5CN(C=O)C5)CC[C@@]45C[C@@]35CC[C@]21C)C(C)(C)O (some centres unmarked)	1 to 10	1 to 10	< 1	–	–	1 to 10	1 to 10
CCO[C@@H](C1C[C@@H](C)[C@H]2C(O1)[C@H](O)[C@@]1(C)C3CC[C@H]4C(C)(C)C(OC(=O)N5CC[C@H](C(=O)O)C5)CC[C@@]45C[C@@]35CC[C@]21C)C(C)(C)O (some centres unmarked)	1 to 10	> 10	< 1	–	–	–	< 1
